Experimental data taken from ChEMBL document CHEMBL4052654, “Development of novel N-3-bromoisoxazolin-5-yl substituted 2,3-benzodiazepines as noncompetitive AMPAR antagonists” (Bioorg Med Chem, 2017).
Blank lines part the entries; values can stand above or below the compound they belong to.

How the values were obtained:
Glutamate receptor 1 [1] = molecular target: T1, Glutamate receptor 1 (Homo sapiens, UniProt P42261); test: Antagonist activity at closed state of GluA1 (unknown origin) assessed as reduction in glutamate-induced current response in presence of 40 to 50 uM glutamate
Glutamate receptor 3 [2] = molecular target: T2, Glutamate receptor 3 (Homo sapiens, UniProt P42263); test: Antagonist activity at closed state of GluA3 (unknown origin) assessed as reduction in glutamate-induced current response in presence of 100 uM glutamate
Glutamate receptor 2 [3] = molecular target: T3, Glutamate receptor 2 (Homo sapiens, UniProt P42262); test: Antagonist activity at open state of GluA2Qflip isoform (unknown origin) expressed in HEK293 cells assessed as reduction in glutamate-induced current response at 2.5 uM in presence of 3 mM glutamate by whole cell assay relative to control; format: cell-based
Glutamate receptor 2 [4] = molecular target: T3, Glutamate receptor 2; test: Antagonist activity at closed state of GluA2Qflip isoform (unknown origin) expressed in HEK293 cells assessed as reduction in glutamate-induced current response at 2.5 uM in presence of 0.1 mM glutamate by whole cell assay relative to control; format: cell-based
Glutamate receptor 1 [5] = molecular target: T1, Glutamate receptor 1; test: Antagonist activity at open state of GluA1 (unknown origin) assessed as reduction in glutamate-induced current response in presence of 2 mM glutamate
Glutamate receptor 4 [6] = molecular target: T4, Glutamate receptor 4 (Homo sapiens, UniProt P48058); test: Antagonist activity at open state of GluA4 (unknown origin) assessed as reduction in glutamate-induced current response in presence of 3 mM glutamate relative to control
Glutamate receptor 2 [7] = molecular target: T3, Glutamate receptor 2; test: Antagonist activity at open state of GluA2Qflip isoform (unknown origin) expressed in HEK293 cells assessed as reduction in glutamate-induced current response in presence of 3 mM glutamate by whole cell assay relative to control; format: cell-based
Glutamate receptor 3 [8] = molecular target: T2, Glutamate receptor 3; test: Antagonist activity at open state of GluA3 (unknown origin) assessed as reduction in glutamate-induced current response in presence of 3 mM glutamate relative to control
Glutamate receptor 3 [9] = molecular target: T2, Glutamate receptor 3; test: Antagonist activity at closed state of GluA3 (unknown origin) assessed as reduction in glutamate-induced current response in presence of 100 uM glutamate relative to control
Glutamate receptor 4 [10] = molecular target: T4, Glutamate receptor 4; test: Antagonist activity at closed state of GluA4 (unknown origin) assessed as reduction in glutamate-induced current response in presence of 100 uM glutamate relative to control
Glutamate receptor 2 [11] = molecular target: T3, Glutamate receptor 2; test: Antagonist activity at closed state of GluA2Qflip isoform (unknown origin) expressed in HEK293 cells assessed as reduction in glutamate-induced current response in presence of 0.1 mM glutamate by whole cell assay; format: cell-based
Glutamate receptor 4 [12] = molecular target: T4, Glutamate receptor 4; test: Antagonist activity at open state of GluA4 (unknown origin) assessed as reduction in glutamate-induced current response in presence of 3 mM glutamate
Glutamate receptor 1 [13] = molecular target: T1, Glutamate receptor 1; test: Antagonist activity at closed state of GluA1 (unknown origin) assessed as reduction in glutamate-induced current response in presence of 40 to 50 uM glutamate relative to control
Glutamate receptor 3 [14] = molecular target: T2, Glutamate receptor 3; test: Antagonist activity at open state of GluA3 (unknown origin) assessed as reduction in glutamate-induced current response in presence of 3 mM glutamate
Glutamate receptor 4 [15] = molecular target: T4, Glutamate receptor 4; test: Antagonist activity at closed state of GluA4 (unknown origin) assessed as reduction in glutamate-induced current response in presence of 100 uM glutamate
Glutamate receptor 1 [16] = molecular target: T1, Glutamate receptor 1; test: Antagonist activity at open state of GluA1 (unknown origin) assessed as reduction in glutamate-induced current response in presence of 2 mM glutamate relative to control
Glutamate receptor 2 [17] = molecular target: T3, Glutamate receptor 2; test: Antagonist activity at closed state of GluA2Qflip isoform (unknown origin) expressed in HEK293 cells assessed as reduction in glutamate-induced current response at 1 uM in presence of 0.1 mM glutamate by whole cell assay relative to control; format: cell-based
Glutamate receptor 2 [18] = molecular target: T3, Glutamate receptor 2; test: Antagonist activity at open state of GluA2Qflip isoform (unknown origin) expressed in HEK293 cells assessed as reduction in glutamate-induced current response at 1 uM in presence of 3 mM glutamate by whole cell assay relative to control; format: cell-based
Glutamate receptor 2 [19] = molecular target: T3, Glutamate receptor 2; test: Antagonist activity at open state of GFP-tagged GluA2Qflip isoform (unknown origin) expressed in HEK293S cells assessed as reduction in glutamate-induced current response in presence of 3 mM glutamate by whole cell assay relative to control; format: cell-based
Glutamate receptor 2 [20] = molecular target: T3, Glutamate receptor 2; test: Antagonist activity at closed state of GFP-tagged GluA2Qflip isoform (unknown origin) expressed in HEK293S cells assessed as reduction in glutamate-induced current response in presence of 0.1 mM glutamate by whole cell assay; format: cell-based
Glutamate receptor 2 [21] = molecular target: T3, Glutamate receptor 2; test: Antagonist activity at closed state of GluA2Qflip isoform (unknown origin) expressed in HEK293 cells assessed as reduction in glutamate-induced current response at 10 uM in presence of 0.1 mM glutamate by whole cell assay relative to control; format: cell-based
Glutamate receptor 2 [22] = molecular target: T3, Glutamate receptor 2; test: Antagonist activity at open state of GluA2Qflip isoform (unknown origin) expressed in HEK293 cells assessed as reduction in glutamate-induced current response at 10 uM in presence of 3 mM glutamate by whole cell assay relative to control; format: cell-based

T2 sequence (P42263 whole entry, canonical isoform): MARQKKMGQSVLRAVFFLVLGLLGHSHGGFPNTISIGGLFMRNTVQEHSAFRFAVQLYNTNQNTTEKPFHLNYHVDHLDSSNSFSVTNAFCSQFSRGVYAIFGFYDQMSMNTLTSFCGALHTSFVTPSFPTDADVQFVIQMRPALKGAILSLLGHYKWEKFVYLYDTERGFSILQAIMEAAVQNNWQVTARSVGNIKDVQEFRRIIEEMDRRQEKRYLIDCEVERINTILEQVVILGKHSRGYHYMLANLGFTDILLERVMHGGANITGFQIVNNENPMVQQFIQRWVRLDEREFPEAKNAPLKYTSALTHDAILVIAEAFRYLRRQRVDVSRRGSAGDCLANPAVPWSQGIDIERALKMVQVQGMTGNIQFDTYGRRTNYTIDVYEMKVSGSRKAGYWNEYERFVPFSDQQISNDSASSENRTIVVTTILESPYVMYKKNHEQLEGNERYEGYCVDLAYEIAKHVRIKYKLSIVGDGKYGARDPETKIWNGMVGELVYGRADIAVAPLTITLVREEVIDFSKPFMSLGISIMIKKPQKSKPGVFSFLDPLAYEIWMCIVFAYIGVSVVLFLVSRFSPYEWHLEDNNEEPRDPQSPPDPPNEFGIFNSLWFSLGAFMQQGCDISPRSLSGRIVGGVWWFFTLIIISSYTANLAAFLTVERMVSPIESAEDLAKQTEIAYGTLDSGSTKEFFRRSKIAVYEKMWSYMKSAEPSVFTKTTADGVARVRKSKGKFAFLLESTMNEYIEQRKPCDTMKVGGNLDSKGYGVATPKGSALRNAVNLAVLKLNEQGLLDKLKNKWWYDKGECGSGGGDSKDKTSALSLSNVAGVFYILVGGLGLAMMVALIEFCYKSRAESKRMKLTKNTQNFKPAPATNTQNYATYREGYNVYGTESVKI
T3 sequence (P42262 whole entry, canonical isoform): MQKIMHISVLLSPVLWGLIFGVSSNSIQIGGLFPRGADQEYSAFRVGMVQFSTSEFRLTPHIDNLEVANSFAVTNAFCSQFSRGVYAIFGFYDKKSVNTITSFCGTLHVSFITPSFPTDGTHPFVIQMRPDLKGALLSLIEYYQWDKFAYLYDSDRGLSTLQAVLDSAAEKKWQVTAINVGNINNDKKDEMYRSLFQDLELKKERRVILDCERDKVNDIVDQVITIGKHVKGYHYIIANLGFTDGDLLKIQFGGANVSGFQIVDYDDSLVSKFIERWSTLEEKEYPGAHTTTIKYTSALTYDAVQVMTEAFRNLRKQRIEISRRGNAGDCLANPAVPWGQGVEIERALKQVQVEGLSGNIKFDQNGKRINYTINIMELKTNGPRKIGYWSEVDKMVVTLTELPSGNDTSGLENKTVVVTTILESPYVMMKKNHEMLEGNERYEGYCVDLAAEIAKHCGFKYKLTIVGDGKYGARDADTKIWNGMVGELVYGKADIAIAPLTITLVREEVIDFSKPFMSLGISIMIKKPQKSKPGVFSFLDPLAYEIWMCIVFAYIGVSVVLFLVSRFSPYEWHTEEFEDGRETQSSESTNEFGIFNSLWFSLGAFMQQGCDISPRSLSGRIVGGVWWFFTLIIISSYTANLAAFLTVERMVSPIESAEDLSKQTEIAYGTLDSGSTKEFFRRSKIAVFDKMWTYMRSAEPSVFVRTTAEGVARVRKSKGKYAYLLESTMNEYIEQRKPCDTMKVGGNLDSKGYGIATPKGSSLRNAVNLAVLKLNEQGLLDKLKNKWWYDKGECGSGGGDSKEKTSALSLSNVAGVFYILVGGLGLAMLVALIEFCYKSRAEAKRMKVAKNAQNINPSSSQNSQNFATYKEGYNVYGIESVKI
T4 sequence (P48058 whole entry, canonical isoform): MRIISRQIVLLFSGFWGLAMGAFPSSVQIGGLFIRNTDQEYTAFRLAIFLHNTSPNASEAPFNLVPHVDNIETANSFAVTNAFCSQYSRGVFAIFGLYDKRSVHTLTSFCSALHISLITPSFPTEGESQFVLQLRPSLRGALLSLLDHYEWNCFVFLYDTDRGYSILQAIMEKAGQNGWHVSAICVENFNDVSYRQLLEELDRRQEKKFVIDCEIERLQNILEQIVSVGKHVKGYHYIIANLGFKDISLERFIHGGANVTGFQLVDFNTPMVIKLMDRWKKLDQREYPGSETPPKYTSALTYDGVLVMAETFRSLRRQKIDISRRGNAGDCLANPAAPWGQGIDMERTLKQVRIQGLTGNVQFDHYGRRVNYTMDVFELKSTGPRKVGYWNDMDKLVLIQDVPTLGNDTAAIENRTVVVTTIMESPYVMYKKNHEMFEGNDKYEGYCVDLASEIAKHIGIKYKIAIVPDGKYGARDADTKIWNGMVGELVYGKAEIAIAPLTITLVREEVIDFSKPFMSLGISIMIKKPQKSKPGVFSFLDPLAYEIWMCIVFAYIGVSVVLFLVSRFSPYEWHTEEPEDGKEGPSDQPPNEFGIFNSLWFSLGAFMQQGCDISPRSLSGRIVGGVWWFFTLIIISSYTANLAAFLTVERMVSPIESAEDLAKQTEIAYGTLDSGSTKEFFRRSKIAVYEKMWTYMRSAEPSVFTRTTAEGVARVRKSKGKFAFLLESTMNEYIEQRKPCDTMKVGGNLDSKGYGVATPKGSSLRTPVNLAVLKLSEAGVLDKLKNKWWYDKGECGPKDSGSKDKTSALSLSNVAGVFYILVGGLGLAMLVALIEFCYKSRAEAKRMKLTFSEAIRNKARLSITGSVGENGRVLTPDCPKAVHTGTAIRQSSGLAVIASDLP
T1 sequence (P42261 whole entry): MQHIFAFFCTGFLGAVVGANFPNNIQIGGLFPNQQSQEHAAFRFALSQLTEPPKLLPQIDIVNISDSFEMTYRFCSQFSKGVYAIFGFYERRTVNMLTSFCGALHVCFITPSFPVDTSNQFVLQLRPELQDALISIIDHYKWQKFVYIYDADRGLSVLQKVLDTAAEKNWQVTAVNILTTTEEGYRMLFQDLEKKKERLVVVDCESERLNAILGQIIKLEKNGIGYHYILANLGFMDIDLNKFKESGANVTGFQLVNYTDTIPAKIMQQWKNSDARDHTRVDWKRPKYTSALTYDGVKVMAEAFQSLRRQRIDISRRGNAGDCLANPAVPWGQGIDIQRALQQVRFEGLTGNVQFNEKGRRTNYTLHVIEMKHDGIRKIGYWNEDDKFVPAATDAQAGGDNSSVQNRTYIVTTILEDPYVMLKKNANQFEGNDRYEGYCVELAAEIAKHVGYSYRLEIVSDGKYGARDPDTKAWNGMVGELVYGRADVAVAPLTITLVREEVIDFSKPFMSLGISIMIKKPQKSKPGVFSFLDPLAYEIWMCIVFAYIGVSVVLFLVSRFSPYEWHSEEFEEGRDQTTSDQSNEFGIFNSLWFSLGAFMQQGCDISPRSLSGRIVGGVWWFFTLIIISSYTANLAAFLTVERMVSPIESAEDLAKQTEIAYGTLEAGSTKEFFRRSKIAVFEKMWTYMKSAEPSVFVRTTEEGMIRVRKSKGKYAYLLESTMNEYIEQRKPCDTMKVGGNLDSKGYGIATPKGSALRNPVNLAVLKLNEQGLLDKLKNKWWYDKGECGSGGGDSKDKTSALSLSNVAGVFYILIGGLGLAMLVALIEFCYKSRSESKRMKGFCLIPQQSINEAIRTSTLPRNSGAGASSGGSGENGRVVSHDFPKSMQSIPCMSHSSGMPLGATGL

Compound: Cc1cc(C2=NN(CC3CC(Br)=NO3)C(=O)Cc3cc4c(cc32)OCCO4)cc(C)c1N (stereo not drawn)
Ki (Glutamate receptor 1 [1]): 13.2 µM
Ki (Glutamate receptor 3 [2]): 27.8 µM
fold change (FC) (Glutamate receptor 2 [3]): 0.95
fold change (FC) (Glutamate receptor 2 [4]): 1.46
Ki (Glutamate receptor 1 [5]): 6.4 µM
fold change (FC) (Glutamate receptor 4 [6]): 1.22
Ki (Glutamate receptor 2 [7]): Not Active
fold change (FC) (Glutamate receptor 3 [8]): 1.18
fold change (FC) (Glutamate receptor 3 [9]): 1.09
fold change (FC) (Glutamate receptor 4 [10]): 1.34
Ki (Glutamate receptor 2 [11]): 5 µM
Ki (Glutamate receptor 4 [12]): 11.4 µM
fold change (FC) (Glutamate receptor 1 [13]): 1.19
Ki (Glutamate receptor 3 [14]): 13.9 µM
Ki (Glutamate receptor 4 [15]): 7.4 µM
fold change (FC) (Glutamate receptor 1 [16]): 1.39

Compound: Cc1cc(C2=NNC(=O)Cc3cc4c(cc32)OCCO4)ccc1N
Ki (Glutamate receptor 2 [19]): 9 µM
Ki (Glutamate receptor 2 [20]): 4 µM

Compound: Cc1cc(C2=NNC(=O)Cc3cc4c(cc32)OCCO4)cc(C)c1N
Ki (Glutamate receptor 2 [19]): 164 µM
Ki (Glutamate receptor 2 [20]): 94 µM

Compound: Cc1cc(C2=NN(CC3CC(Br)=NO3)C(=O)Cc3cc4c(cc32)OCCO4)ccc1N (stereo not drawn)
Ki (Glutamate receptor 2 [7]; read-out: Ki): 50 µM
fold change (FC) (Glutamate receptor 2 [21]): 1.23
fold change (FC) (Glutamate receptor 2 [22]): 1.2
Ki (Glutamate receptor 2 [11]): 50 µM

Compound: CC1=NN=C(c2ccc(N)cc2)c2cc3c(cc2C1)OCO3 [GYKI-52466]
Ki (Glutamate receptor 2 [19]): 5 µM
Ki (Glutamate receptor 2 [20]): 4 µM

Compound: Nc1ccc(C2=NNC(=O)Cc3cc4c(cc32)OCCO4)cc1
Ki (Glutamate receptor 2 [19]): 33 µM
Ki (Glutamate receptor 2 [20]): 21 µM

The next lines start with the values.

fold change (FC) (Glutamate receptor 2 [17]): 1.21
fold change (FC) (Glutamate receptor 2 [18]): 1.24
Compound: Cc1cc(C2=NN(C3CC(Br)=NO3)C(=O)Cc3cc4c(cc32)OCCO4)cc(C)c1N (stereo not drawn)

fold change (FC) (Glutamate receptor 2 [3]): 1.18
fold change (FC) (Glutamate receptor 2 [4]): 1.75
Ki (Glutamate receptor 2 [7]; read-out: Ki): 14 µM
Ki (Glutamate receptor 2 [11]): 3 µM
Compound: Nc1ccc(C2=NN(C3CC(Br)=NO3)C(=O)Cc3cc4c(cc32)OCCO4)cc1 (stereo not drawn)

fold change (FC) (Glutamate receptor 2 [17]): 1.44
fold change (FC) (Glutamate receptor 2 [18]): 1.09
Compound: Nc1ccc(C2=NN(CC3CC(Br)=NO3)C(=O)Cc3cc4c(cc32)OCCO4)cc1 (stereo not drawn)

fold change (FC) (Glutamate receptor 2 [17]): 1.01
fold change (FC) (Glutamate receptor 2 [18]): 1.16
Compound: Cc1cc(C2=NN(C3CC(Br)=NO3)C(=O)Cc3cc4c(cc32)OCCO4)ccc1N (stereo not drawn)
